This note sets out measurements from patent US20100234364A1, “CCR2 INHIBITORS AND METHODS OF USE THEREOF” (priority 2007, published 2010).

For this test, the target named is T1, CCR2 (Homo sapiens, UniProt P41597).
T1 construct: chemokine expressing cells (such as THP-1 cells for CCR2 assay or MOLT-4 cells for CCR9 assay); host or cells: THP-1 cells
Put plainly: chemotaxis (conventional migration), ligand binding or calcium mobilization (calcium flux) assays. The class given is cell-based. The method, then:
THP-1 cells and MOLT-4 cells were obtained from the American Type Culture Collection (Manassas, Va.) and cultured in RPMI tissue culture medium supplemented with 10% fetal calf serum (FCS) in a humidified 5% CO2 incubator at 37° C. Recombinant human chemokine proteins MCP-1 and TECK were obtained from R&D Systems (Minneapolis, Minn.). ^125I-labeled MCP-1 protein was obtained from Amersham (Piscataway, N.J.). ChemoTX® chemotaxis microchambers were purchased from Neuro Probe (Gaithersburg, Md.). CyQUANT® cell proliferation kits were purchased from Molecular Probes (Eugene, Oreg.). Calcium indicator dye Fluo-4 AM was purchased from Molecular Devices (Mountain View, Calif.).
Conventional-migration assay was used to determine the efficacy of potential receptor antagonists in blocking migration mediated through chemokines (such as CCR2 or CCR9). This assay was routinely performed using the ChemoTX® microchamber system with a 5-μm pore-sized polycarbonate membrane. To begin such an assay, chemokine expressing cells (such as THP-1 cells for CCR2 assay or MOLT-4 cells for CCR9 assay) were harvested by centrifugation of cell suspension at 1000 RPM on a GS-6R Beckman centrifuge. The cell pellet was resuspended in chemotaxis buffer (HBSS with 0.1% BSA) at 10×10^6cells/mL for CCR2 assay (5 ×10^6cells/mL for CCR9 assay). Test compounds at desired concentrations were prepared from 10 mM stock solutions by serial dilutions in chemotaxis buffer. An equal volume of cells and compounds were mixed and incubated at room temperature for 15 minutes. Afterwards, 20 μL of the mixture was transferred onto the porous membrane of a migration microchamber, with 29 μL of chemokine ligand (0.1 nM chemokine MCP-1 protein for CCR2 assay or 50 nm chemokine TECK protein for CCR9 assay) placed at the lower chamber. Following an incubation at 37° C. (90-minute for CCR2; 150-minute for CCR9), during which cells migrated […] the chemokine gradient, the assay was terminated by removing the cell drops from atop the filter. To quantify cells migrated across the membrane, 5 μL of 7X CyQUANT® solution was added to each well in the lower chamber, and the fluorescence signal measured on a Spectrafluor Plus fluorescence plate reader (TECAN, Durham, N.C.). The degree of inhibition was determined by comparing migration signals between compound-treated and untreated cells. IC50 calculation was further performed by non-linear squares regression analysis using Graphpad Prism (Graphpad Software, San Diego, Calif.).
Calcium flux assay measures an increase in intracellular calcium following ligand-induced receptor activation. In the screen of chemokine antagonists, it was used as a secondary assay carried out on a FLIPR® machine (Molecular Devices, Mountain View, Calif.). To begin an assay, chemokine expressing cells (such as THP-1 cells for CCR2 assay or MOLT-4 cells for CCR9 assay) were harvested by centrifugation of cell suspension, and resuspended to 1.5×10^6 cells/mL in HBSS (with 1% fetal calf serum). Cells were then labeled with a calcium indicator dye Fluo-4 AM for 45 minutes at 37° C. with gentle shaking. Following incubation, cells were pelletted, washed once with HBSS and resuspended in the same buffer at a density of 1.6×10^6 cells/mL. One hundred microliters of labeled cells were mixed with 10 μL of test compound at the appropriate concentrations on an assay plate. Chemokine protein (MCP-1 at a final concentration of 0.1 nM for CCR2 assay or TECK at a final concentration of 25 nM for CCR9 assay) to activate the receptor. The degree of inhibition was determined by comparing calcium signals between compound-treated and untreated cells. IC50 calculations were further performed by non-linear squares regression analysis using Graphpad Prism (Graphpad Software, San Diego, Calif.).
Ligand binding assay was used to determine the ability of potential CCR2 antagonists to block the interaction between CCR2 and its ligand MCP-1. […]
Background: A change in cytosolic calcium serves as a functional read-out for many receptors and channels.

The mark [1] stands for this setting: Table 2: activity in one of the chemotaxis.
[2] abbreviates: Table 3: activity in one of the chemotaxis.

T1 sequence (P41597 whole entry): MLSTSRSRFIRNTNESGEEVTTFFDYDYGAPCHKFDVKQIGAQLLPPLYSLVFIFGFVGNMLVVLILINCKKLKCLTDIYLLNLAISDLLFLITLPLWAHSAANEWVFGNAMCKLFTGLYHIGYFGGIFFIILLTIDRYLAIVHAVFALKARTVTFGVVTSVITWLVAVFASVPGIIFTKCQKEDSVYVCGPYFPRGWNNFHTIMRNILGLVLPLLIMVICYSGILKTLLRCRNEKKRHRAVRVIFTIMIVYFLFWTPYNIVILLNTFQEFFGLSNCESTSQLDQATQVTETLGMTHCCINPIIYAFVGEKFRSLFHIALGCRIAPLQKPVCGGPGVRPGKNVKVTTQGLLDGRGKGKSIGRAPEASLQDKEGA

One may read the IC50 as the concentration that inhibits the measured activity by half. On to `O=C(c1ccccc1)c1ccc(Cl)cc1NS(=O)(=O)c1ccc(Cl)c(C(F)(F)F)c1` [drawing 278], for which the IC50 under setting [1] was below 0.5 µM.
Same read-out and setting: with `O=C(c1ccc(Cl)cc1NS(=O)(=O)c1ccc(Cl)c(C(F)(F)F)c1)N1CCCCC1` [drawing 291] the figure was below 0.5 µM; with `O=C(c1ccccc1)c1cc(Cl)ccc1NS(=O)(=O)c1ccc(Cl)c(Cl)c1` [drawing 296], below 0.5 µM.
Turning to `O=C(c1ccccc1)c1cc(Cl)ccc1NS(=O)(=O)c1ccc(Cl)cc1` [drawing 298], the IC50 under setting [1] was below 0.5 µM.
Turning to `O=C(c1ccccc1)c1cc(F)ccc1NS(=O)(=O)c1ccc(Cl)c(Cl)c1` [drawing 300], the IC50 under setting [1] is below 0.5 µM.
As for `O=C(c1ccccc1)c1ccc(Br)cc1NS(=O)(=O)c1ccc(Cl)c(Cl)c1` [drawing 301], the IC50 under setting [1] was below 0.5 µM.
Same read-out and setting: then `O=C(c1ccccc1)c1cc(Cl)ccc1NS(=O)(=O)c1ccc(Cl)c(C(F)(F)F)c1` [drawing 302], with below 0.5 µM.
As to `Cn1ccnc1C(O)c1cc(Cl)ccc1NS(=O)(=O)c1ccc(Cl)c(Cl)c1` (stereo not drawn) [drawing 303], the IC50 under setting [1] was below 0.5 µM.
Still for that read-out and setting: with `O=S(=O)(Nc1ccc(Cl)cc1-c1nnn[nH]1)c1ccc(Cl)c(Cl)c1` [drawing 304] the figure was below 0.5 µM; with `O=C(c1ccc(F)cc1)c1cc(Cl)ccc1NS(=O)(=O)c1ccc(Cl)c(Cl)c1` [drawing 305], below 0.5 µM.
Still for that read-out and setting: with `O=C(c1ccccc1F)c1cc(Cl)ccc1NS(=O)(=O)c1ccc(Cl)c(Cl)c1` [drawing 306] the figure was below 0.5 µM.
On the same count and under the same terms, with `Cn1ccc(C(=O)c2cc(Cl)ccc2NS(=O)(=O)c2ccc(Cl)c(C(F)(F)F)c2)n1` [drawing 311] the figure was below 0.5 µM.
In the case of `Cn1ccc(C(=O)c2cc(Cl)ccc2NS(=O)(=O)c2ccc(Cl)c(C(F)(F)F)c2)n1` [drawing 322], the half-inhibitory concentration (IC50) under setting [2] lay in the range of 0.5 to 5 µM.
Same read-out and setting: then `O=S(=O)(Nc1ccc(Cl)cc1-c1nnn[nH]1)c1ccc(Cl)c(Cl)c1` [drawing 325], with 0.5 to 5 µM; and `Cn1ccnc1C(O)c1cc(Cl)ccc1NS(=O)(=O)c1ccc(Cl)c(Cl)c1` (stereo not drawn) [drawing 327], with 0.5 to 5 µM; and `O=C(c1ccccc1)c1ccc(Br)cc1NS(=O)(=O)c1ccc(Cl)c(Cl)c1` [drawing 328], with 0.5 to 5 µM.
Same read-out and setting: then `O=C(c1ccccc1)c1cc(Cl)ccc1NS(=O)(=O)c1ccc(Cl)cc1` [drawing 330], with 0.5 to 5 µM; and `O=C(c1ccccc1F)c1cc(Cl)ccc1NS(=O)(=O)c1ccc(Cl)c(Cl)c1` [drawing 335], with 0.5 to 5 µM.
On the same count and under the same terms, with `O=C(c1ccc(F)cc1)c1cc(Cl)ccc1NS(=O)(=O)c1ccc(Cl)c(Cl)c1` [drawing 336] the figure was 0.5 to 5 µM; with `O=C(c1ccccc1)c1cc(Cl)ccc1NS(=O)(=O)c1ccc(Cl)c(C(F)(F)F)c1` [drawing 337], 0.5 to 5 µM.
In the case of `O=C(c1ccccc1)c1cc(F)ccc1NS(=O)(=O)c1ccc(Cl)c(Cl)c1` [drawing 338], the half-inhibitory concentration (IC50) under setting [2] was 0.5 to 5 µM.
Still for that read-out and setting: with `O=C(c1ccccc1)c1cc(Cl)ccc1NS(=O)(=O)c1ccc(Cl)c(Cl)c1` [drawing 342] the figure was 0.5 to 5 µM; with `O=C(c1ccccc1)c1ccc(Cl)cc1NS(=O)(=O)c1ccc(Cl)c(C(F)(F)F)c1` [drawing 344], 0.5 to 5 µM.
On the same count and under the same terms, then `O=C(c1ccc(Cl)cc1NS(=O)(=O)c1ccc(Cl)c(C(F)(F)F)c1)N1CCCCC1` [drawing 371], with 0.5 to 5 µM.
